Type in all cases: cell-based
For one assay, the system named is LOVO cells. The assay can be described thus: LOVO CTG proliferation assay (120 h) (CRC, G13D). To be noted: Homo sapiens. How it is done: LOVO CTG Proliferation Assay (120 h) (CRC, G13D)
(§1) LOVO cells (ATCC CCL-229) are dispensed into 384-well plates, flat and clear bottom (Greiner, PNr. 781091) at a density of 1000 cells per well in 60 μL DMEM (Sigma D6429)+10% Fetal Calf Serum (HyClone, PNr.: SH30084.03) and incubated at 37° C. in a CO2 incubator overnight. The next day, compounds (10 mM stock in DMSO) are added with the ECHO acoustic liquid handler system (Beckman Coulter), including DMSO controls. Plates are incubated for 120 h, and cell viability is measured using CellTiter-Glo luminescent cell viability reagent (Promega product code G7570). Viability (stated as percent of control) is defined as relative luminescence units RLU of each well divided by the RLU of cells in DMSO controls. IC50 values are determined from viability measurements by non-linear regression using a four-parameter model.

The test system of another assay is SK—CO-1 cells. In words: SK-CO-1 CTG proliferation assay (120 h) (CRC, G12V). To be noted: Homo sapiens, SK-CO-1 proliferation. On the procedure: SK—CO-1 CTG Proliferation Assay (120 h) (CRC, G12V)
as §1, with “SK—CO-1” for “LOVO”, “HTB-39)” for “CCL-229)”, “500” for “1000”, “EMEM” for “DMEM”, “M5650)+10%” for “D6429)+10%”

In a further assay the target is T1, KRAS(G12D) (Homo sapiens, UniProt P01116, G12D).
T1 construct: introduced immediately downstream of the initiating Methionine codon of the endogenous KRAS locus; host or cells: GP5d-HiBit-KRAS(G12D), a CRISPR knock-in at the endogenous locus
T1 sequence (P01116 1-188 isoform P01116-2 G12D): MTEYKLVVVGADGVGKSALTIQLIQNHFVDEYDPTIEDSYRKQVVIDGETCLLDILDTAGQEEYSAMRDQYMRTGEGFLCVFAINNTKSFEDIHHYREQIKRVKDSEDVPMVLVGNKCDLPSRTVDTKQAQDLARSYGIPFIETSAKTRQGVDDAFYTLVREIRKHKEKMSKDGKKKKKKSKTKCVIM
In words: HiBit degradation assay in GP5d-HiBit-KRAS(G12D) cells (18 h; DC50, Dmax). How it is done: A HiBit protein detection tag (amino acid sequence […], Seq ID No 1) was introduced immediately downstream of the initiating Methionine codon of the endogenous KRAS locus (Ensembl gene ID ENSG00000133703.7) of GP5d cells (ECACC Cat. No. 95090715) by CRISPR-based genome engineering using a KRAS(G12D) mutant donor construct encoding the HiBit tag. […] Correct modification of the KRAS locus was assessed by PCR-based genotyping and Sanger sequencing of the isolated PCR products. The resulting cell line is referred to as GP5d-HiBit-KRAS(G12D).
To assess PROTAC-mediated degradation of KRAS(G12D), GP5d-HiBit-KRAS(G12D) cells were seeded at 25000 cells per well in 100 μL Dulbecco's Modified Eagle medium (Sigma cat. no. D6429) supplemented with 10% fetal calf serum into white bottom opaque 96 well plates (Perkin Elmer cat no. 5680). Plates were incubated at 37° C., 5% CO2 in a humidified incubator over night to allow the cells to adhere. […] Plates were further incubated at 37° C. for 18 hours. Following incubation, 100 μL per well Promega Nano-Glo HiBit lytic detection reagent mix (Promega Nano-Glo HiBit Lytic Detection System #N3050), prepared according to the manufacturer's instructions in the kit, were added. To allow for adequate cell lysis, plates were incubated on an orbital shaker for 15 min and further incubated 30 min at room temperature. Upon completion of cell lysis, luminescence was measured using an Envision plate reader using the Ultrasensitive Luminescence Protocol for 96 well plates. Luminescence levels were normalized by the values obtained with DMSO-treated samples and plotted as percent of DMSO control. DC50 values were computed using a four parametric logistic model. Dmax values represent the maximal extent of degradation observed and is stated as percent of control (% Ctrl.) treatments. DC50 and Dmax are reported in Table 64 for representative compounds of the invention.
Background: HiBiT is a short tag that completes a luciferase, so light tracks the accessible tagged protein.

The subject of the next assay is SAS cells. The assay can be described thus: SAS CTG proliferation assay (120 h) (HNSCC, wt amplified). On the procedure:
SAS CTG Proliferation Assay (120 h) (HNSCC, Wt Amplified)
as §1, with “SAS” for “LOVO”, “(JCRB0260)” for “(ATCC CCL-229)”, “300” for “1000”, “DMEM:F12 (Gibco 31330-038)+10%” for “DMEM (Sigma D6429)+10%”

The subject of the next assay is AsPC-1 cells. The assay can be described thus: AsPC-1 CTG proliferation assay (120 h) (pancreatic cancer, G12D). To be noted: Homo sapiens, ASPC1, AsPC-1 proliferation. On the procedure:
AsPC-1 CTG Proliferation Assay (120 h) (Pancreatic Cancer, G12D)
The CTG assay is designed to measure quantitatively the proliferation of AsPC-1 cells (ATCC […]), using the CellTiter Glow Assay Kit (Promega G7571). Cells are grown in RPMI medium (ATCC) supplemented with Fetal Calf Serum (Life Technologies, Gibco BRL, Cat. No. 10270-106). On “day 0” 2000 AsPC-1 cells are seeded in 60 μL RPMI ATCC+10% FCS+ Penstrep in a 384-well plate, flat and clear bottom (Greiner, PNr. 781091). Cells are then incubated in the plates at 37° C. in a CO2 incubator overnight. On day 1, compounds (10 mM stock in DMSO) are added with the ECHO acoustic liquid handler system (Beckman Coulter), including DMSO controls. Plates are incubated for 120 h, and cell viability is measured using CellTiter-Glo luminescent cell viability reagent (Promega product code G7570). Viability (stated as percent of control) is defined as relative luminescence units RLU of each well divided by the RLU of cells in DMSO controls. IC50 values are determined from viability measurements by non-linear regression using a four-parameter model.

The subject of the next assay is NCI-H358 cells. The assay can be described thus: NCI-H358 CTG proliferation assay (120 h) (NSCLC, G12C). The following applies: Homo sapiens, assay 2, read-out: H358 (assay 2) IC50. On the procedure: NCI-H358 CTG Proliferation Assay (120 h) (NSCLC, G12C)
NCI-H358 cells (ATCC No. CRL-5807) are dispensed into white bottom opaque 96 well plates (Perkin Elmer cat no. 5680) at a density of 2000 cells per well in 100 μL RPMI-1640 ATCC-Formulation (Gibco #A10491)+10% FCS (fetal calf serum) (assay 1) or into black 384-well plates, flat and clear bottom (Greiner, PNr. 781091) at a density of 200 cells per well in 60 μl RPMI-1640 ATCC-Formulation (Gibco #A10491)+10% FCS (fetal calf serum) (assay 2). […] Compounds (10 mM stock in DMSO) are added at logarithmic dose series using the HP Digital Dispenser D300 (Tecan) (assay 1) or the ECHO acoustic liquid handler system (Beckman Coulter) (assay 2), normalizing for added DMSO and including DMSO controls. For the TO time point measurement, untreated cells are analyzed at the time of compound addition. Plates are incubated for 120 h, and cell viability is measured using CellTiter-Glo luminescent cell viability reagent (Promega product code G7570). Viability (stated as percent of control) is defined as relative luminescence units RLU of each well divided by the RLU of cells in DMSO controls. IC50 values are determined from viability measurements by non-linear regression using a four parameter model.

The term IC50 denotes the midpoint of a concentration-inhibition curve. For orientation: DC50 means the concentration at which degradation of the target reaches its halfway point.

As to `COC(=O)[C@H](NC(=O)[C@@H]1C[C@@H](O)CN1C(=O)C(C(C)C)n1cc(OCCCCN2CCCN(c3nccc(-c4noc([C@@]5(C)CCCc6sc(N)c(C#N)c65)n4)n3)[C@@H](C)C2)nn1)c1ccc(-c2scnc2C)cc1` (some centres unmarked) [I-33], the IC50 came out at 50 nM with LOVO cells, 1950 nM in the assay on SK—CO-1 cells, 84.5 nM in the assay on SAS cells and 323 nM in the assay with AsPC-1 cells. Moreover, the DC50 at KRAS(G12D) was found to be 13.1 nM. In addition, on KRAS(G12D), the “Dmax 18 h” value turned out to be 91 % Ctrl.

`CC(C)C(C(=O)N1C[C@H](O)C[C@H]1C(=O)NCc1ccc(C#N)c(Cl)c1)c1cc(OCCCCN2CCCN(c3nccc(-c4noc([C@@]5(C)CCCc6sc(N)c(C#N)c65)n4)n3)[C@@H](C)C2)no1` (some centres unmarked) [I-18]: the IC50 in the assay with LOVO cells is 278 nM; in the assay with SK—CO-1 cells it was 124 nM; in the assay on SAS cells, 3380 nM; with AsPC-1 cells, 435 nM; with NCI-H358 cells, 169 nM. Also, the DC50 on KRAS(G12D) was determined as 4.1 nM. For the same compound, on KRAS(G12D), the “Dmax 18 h” value amounted to 89 % Ctrl.

As for `Cc1ncsc1-c1ccc([C@H](CO)NC(=O)[C@@H]2C[C@@H](O)CN2C(=O)C(C(C)C)n2cc(OCCCCN3C[C@H](C)N(c4nccc(-c5noc([C@@]6(C)CCCc7sc(N)c(C#N)c76)n5)n4)CCC3(C)C)nn2)cc1` (some centres unmarked) [I-32], the IC50 in the assay with LOVO cells was 929 nM; with SK—CO-1 cells, 507 nM; in the assay with SAS cells, 9440 nM; in the assay on AsPC-1 cells, 8330 nM. Besides, the 50% degradation concentration (DC50) on KRAS(G12D) worked out at 7.6 nM. Besides, the “Dmax 18 h” value at KRAS(G12D) was 83 % Ctrl.

With `CC(C)C(C(=O)N1C[C@H](O)C[C@H]1C(=O)NCc1ccc(-c2scnc2CO)cc1)c1cc(OCCCCN2CCCN(c3nccc(-c4noc([C@@]5(C)CCCc6sc(N)c(C#N)c65)n4)n3)[C@@H](C)C2)no1` (some centres unmarked) [I-9], the half-maximal inhibitory concentration (IC50) in the assay on LOVO cells came to 59.4 nM; with SK—CO-1 cells, 216 nM; in the assay on SAS cells it was 16400 nM; with AsPC-1 cells, 470 nM; with NCI-H358 cells, 288 nM. Further, on KRAS(G12D), it took 12.9 nM to reach half-maximal degradation (DC50). Moreover, the “Dmax 18 h” value at KRAS(G12D) is on record as 92 % Ctrl.

In the case of `Cc1ncsc1-c1ccc(CNC(=O)[C@@H]2C[C@@H](O)CN2C(=O)C(c2cc(OCCCCN3CCCN(c4nccc(-c5cc([C@@]6(C)CCCc7sc(N)c(C#N)c76)no5)n4)[C@@H](C)C3)no2)C(C)C)cc1` (some centres unmarked) [I-6], the IC50 in the assay with SK—CO-1 cells worked out at 1210 nM; with SAS cells, 17000 nM; in the assay on AsPC-1 cells it was 645 nM; in the assay with NCI-H358 cells it was 253 nM. Also, it took 8.9 nM to reach half-maximal degradation at KRAS(G12D) (DC50). On KRAS(G12D), the “Dmax 18 h” value stood at 92 % Ctrl.

Values taken from patent publication US20250145608A1, “KRAS DEGRADING COMPOUNDS COMPRISING ANNULATED 2-AMINO-3-CYANO THIOPHENES” (Boehringer Ingelheim Int'l GmbH Corp., priority 2021, published 2025).
